One test concerns the target p38 MAPKα (Homo sapiens (Human), UniProt Q16539). Briefly: p38 MAPKα enzyme inhibition (FRET, Method 2). The test is classed as biochemical. Here is the method:
(§1) The enzyme inhibitory activities of compounds disclosed herein are determined by FRET using synthetic peptides labelled with both donor and acceptor fluorophores (Z-LYTE, Invitrogen Ltd., Paisley, UK).
The inhibitory activities of test compounds against the p38 MAPKα isoform (MAPK14: Invitrogen), are evaluated indirectly by determining the level of activation/phosphorylation of the down-stream molecule, MAPKAP-K2. The p38 MAPKα protein (80 ng/mL, 2.5 μL) is mixed with the test compound (2.5 μL of either 4 μg/mL, 0.4 μg/mL, 0.04 μg/mL or 0.004 μg/mL) for 2 hr at RT. […] The mixture is incubated for 1 hr at RT. Development reagent (protease, 5 μL) is added for 1 hr prior to detection in a fluorescence microplate reader (Varioskan® Flash, ThermoFisher Scientific).
(§2) In all cases, the site-specific protease cleaves non-phosphorylated peptide only and eliminates the FRET signal. Phosphorylation levels of each reaction are calculated using the ratio of coumarin emission (donor) over fluorescein emission (acceptor), for which high ratios indicate high phosphorylation and low ratios indicate low phosphorylation levels.

The target in the next test is c-Src (Homo sapiens (Human), UniProt P12931). Briefly: c-Src enzyme inhibition (FRET). The class given is biochemical. Here is the method:
as §1
(§3) The inhibitory activities of compounds of the invention against c-Src and Syk enzymes (Invitrogen), are evaluated in a similar fashion to that described hereinabove. The relevant enzyme (3000 ng/mL or 2000 ng/mL respectively, 2.5 μL) is incubated with the test compound (either 4 μg/mL, 0.4 μg/mL, 0.04 μg/mL, or 0.004 μg/mL, 2.5 μL each) for 2 hr at RT. The FRET peptides (8 μM. 2.5 μL), and appropriate ATP solutions (2.5 μL, 800 μM for c-Src, and 60 μM ATP for Syk) are then added to the enzymes/compound mixtures and incubated for 1 hr. Development reagent (protease, 5 μL) is added for 1 hr prior to detection in a fluorescence microplate reader (Varioskan® Flash, ThermoFisher Scientific).
as §2

The next test addresses Syk (Homo sapiens (Human), UniProt P43405). Briefly: Syk enzyme inhibition (FRET). The class given is biochemical. The procedure: as §1, §3, §2
The target of another test is GSK3α (Homo sapiens (Human), UniProt P49840). Description: GSK 3α enzyme inhibition (FRET, Method 2). The class given is biochemical. The procedure: as §1
GSK3α, sequence (P49840 whole entry, canonical isoform): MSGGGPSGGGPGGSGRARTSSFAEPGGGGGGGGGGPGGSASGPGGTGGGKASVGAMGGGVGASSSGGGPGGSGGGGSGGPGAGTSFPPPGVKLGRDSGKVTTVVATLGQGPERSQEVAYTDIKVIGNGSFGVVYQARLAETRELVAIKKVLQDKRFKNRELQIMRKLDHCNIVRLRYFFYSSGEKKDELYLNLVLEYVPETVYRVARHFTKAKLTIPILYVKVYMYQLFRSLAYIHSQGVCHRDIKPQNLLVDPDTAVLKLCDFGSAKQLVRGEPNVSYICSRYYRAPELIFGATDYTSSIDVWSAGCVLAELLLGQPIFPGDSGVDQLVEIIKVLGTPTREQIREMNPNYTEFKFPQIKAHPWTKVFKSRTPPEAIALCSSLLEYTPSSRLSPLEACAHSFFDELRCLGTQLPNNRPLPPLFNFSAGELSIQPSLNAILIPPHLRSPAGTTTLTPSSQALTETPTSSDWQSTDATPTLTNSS
The inhibitory activities of compounds of the invention against the GSK 3α enzyme isoform (Invitrogen), are evaluated by determining the level of activation/phosphorylation of the target peptide. The GSK3-α protein (500 ng/mL, 2.5 μL) is mixed with the test compound (2.5 μL at either 4 μg/mL, 0.4 μg/mL, 0.04 μg/mL, or 0.004 μg/mL) for 2 hr at RT. The FRET peptide (8 μM, 2.5 μL), which is a phosphorylation target for GSK3α, and ATP (40 μM, 2.5 μL) are then added to the enzyme/compound mixture and the resulting mixture incubated for 1 hr. Development reagent (protease, 5 μL) is added for 1 hr prior to detection in a fluorescence microplate reader (Varioskan® Flash, ThermoFisher Scientific).
as §2

The subject of test [1] is PBMCs. Briefly: (b) LPS-induced TNFα/IL-8 release in PBMC cells. As to conditions: Homo sapiens, read-out: IC50 for Inhibition of Cytokine Release, IL-8. The test is classed as cell-based. Here is the method: Peripheral blood mononuclear cells (PBMCs) from healthy subjects are separated from whole blood using a density gradient (Lymphoprep, Axis-Shield Healthcare). The PBMCs are seeded in 96 well plates and treated with compounds at the desired concentration for 2 hours before addition of 1 ng/ml LPS (Escherichia Coli 0111:B4 from Sigma Aldrich) for 24 hours under normal tissue culture conditions (37° C., 5% CO2). The supernatant is harvested for determination of IL-8 and TNFα concentrations by sandwich ELISA (Duo-set, R&D systems) and read on the fluorescence microplate reader (Varioskan® Flash, ThermoFisher Scientific).

A further test concerns HT29 cells. Description: (d) IL-1β-induced IL-8 release in HT29 cells. The test is classed as cell-based. The note with it: Homo sapiens, HT-29, read-out: IC50 for Inhibition of Cytokine Release, IL-8. The procedure: HT29 cells, a human colon adenocarcinoma cell line, are plated in a 96 well plate (24 hrs) and pre-treated with compounds at the desired concentration for 2 hours before addition of 5 ng/ml of IL-1β (Abeam) for 24 hours. Supernatants are harvested for IL-8 quantification by Sandwich ELISA (Duo-set, R&D System). The IC50 is determined from the dose response curve.

The next test deals with β-catenin. Briefly: (m) Accumulation of β catenin in d-U937 cells. The note with it: Reference Compound at 1 μg/mL defined as 100%. The class given is cell-based, human. Here is the method:
U937 cells, a human monocytic cell line, are differentiated into macrophage-type cells by incubation with PMA; (100 ng/mL) for between 48 to 72 hr. The cells are then incubated with either final concentrations of test compound or vehicle for 18 hr. The induction of β-catenin by the test compounds is stopped by replacing the media with 4% formaldehyde solution. Endogenous peroxide activity is neutralised by incubating with quenching buffer (100 μL, 0.1% sodium azide, 1% H2O2 in PBS with 0.05% Tween-20) for 20 min. The cells are washed with washing buffer (200 μL; PBS containing 0.05% Tween-20) and incubated with blocking solution (200 μL; 5% milk in PBS) for 1 hr, re-washed with washing buffer (200 μL) and then incubated overnight with anti-β-catenin antibody solution (50 μL) in 1% BSA/PBS (BD, Oxford, UK).
After washing with washing buffer (3×200 μL; PBS containing 0.05% Tween-20), cells are incubated with an HRP-conjugated secondary antibody solution (100 μL) in 1% BSA/PBS (Dako, Cambridge, UK) and the resultant signal is determined colourimetrically (OD: 450 nm with a reference wavelength of 655 nm) using TMB substrate (50 μL; R&D Systems, Abingdon, UK). This reaction is stopped by addition of 1N H2SO4 solution (50 μL). Cells are then washed with washing buffer and 2% crystal violet solution (50 μL) is applied for 30 min. After washing with washing buffer (3×200 μL), 1% SDS (100 μL) is added to each well and the plates are shaken lightly for 1 hr prior to measuring the absorbance at 595 nm (Varioskan® Flash, Thermo-Fisher Scientific).
The measured OD450-655 readings are corrected for cell number by dividing the OD450-655 by the OD595 readings.

Test [2] relates to PBMCs. Briefly: (c) IL-2 and IFN gamma release in CD3/CD28 stimulated PBMC cells. The test is classed as cell-based. As to conditions: Homo sapiens, read-out: IC50 for Inhibition of Cytokine Release, IFNγ. The procedure: PBMCs from healthy subjects are separated from whole blood using a density gradient (Lymphoprep, Axis-Shield Healthcare). Cells are added to a 96 well plate pre-coated with a mixture of CD3/CD28 monoclonal antibodies (0.3 ug/ml eBioscience and 3 ug/ml BD Pharmingen respectively). Compound at the desired concentration is then added to the wells and the plate left for 3 days under normal tissue culture conditions. […] The IC50 is determined from the dose response curve.

Test [3] has as its system PBMCs. Description: (i) Cell mitosis assay in PBMCs. The test is classed as cell-based. The note with it: Homo sapiens, PBMC, 5 μg/mL. Here is the method: PBMCs from healthy subjects are separated from whole blood (Quintiles, London, UK) using a density gradient (Histopaque®-1077, Sigma-Aldrich, Poole, UK). The PBMCs (3 million cells per sample) are subsequently treated with 2% PHA (Sigma-Aldrich, Poole, UK) for 48 hr, followed by a 20 hr exposure to varying concentrations of test compounds. At 2 hr before collection, PBMCs are treated with demecolcine (0.1 μg/mL; Invitrogen, Paisley, UK) to arrest cells in metaphase. […] Fluorescence is observed using an ATTUNE flow cytometer (Invitrogen, Paisley, UK), gating for lymphocytes.

p38 MAPKα, sequence (Q16539 whole entry): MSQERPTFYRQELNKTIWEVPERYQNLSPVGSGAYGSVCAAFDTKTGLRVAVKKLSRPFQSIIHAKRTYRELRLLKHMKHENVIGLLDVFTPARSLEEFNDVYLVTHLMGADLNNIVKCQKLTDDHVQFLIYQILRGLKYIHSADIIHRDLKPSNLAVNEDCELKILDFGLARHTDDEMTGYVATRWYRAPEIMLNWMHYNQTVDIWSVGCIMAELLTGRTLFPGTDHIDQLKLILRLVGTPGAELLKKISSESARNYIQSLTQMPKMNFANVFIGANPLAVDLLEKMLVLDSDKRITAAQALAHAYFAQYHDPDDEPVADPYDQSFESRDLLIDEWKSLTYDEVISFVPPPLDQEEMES
c-Src, sequence (P12931 whole entry, looked up): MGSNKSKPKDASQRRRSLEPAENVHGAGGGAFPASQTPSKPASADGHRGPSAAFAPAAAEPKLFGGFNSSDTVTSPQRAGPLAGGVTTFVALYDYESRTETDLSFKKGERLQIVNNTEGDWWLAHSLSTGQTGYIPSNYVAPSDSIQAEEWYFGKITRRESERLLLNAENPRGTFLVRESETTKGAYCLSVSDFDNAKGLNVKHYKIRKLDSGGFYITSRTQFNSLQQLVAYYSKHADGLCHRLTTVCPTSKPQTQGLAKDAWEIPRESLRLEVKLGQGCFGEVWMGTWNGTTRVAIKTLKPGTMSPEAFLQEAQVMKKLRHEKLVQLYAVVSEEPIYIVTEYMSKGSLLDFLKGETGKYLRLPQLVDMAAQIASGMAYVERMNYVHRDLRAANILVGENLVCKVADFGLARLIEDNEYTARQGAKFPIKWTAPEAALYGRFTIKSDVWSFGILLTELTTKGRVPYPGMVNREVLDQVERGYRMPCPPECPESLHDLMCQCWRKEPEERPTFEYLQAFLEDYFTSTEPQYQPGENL

Regarding `COCCOCCOCCNC(=O)c1cc(Nc2cc(Oc3ccc(NC(=O)Nc4cc(C(C)(C)C)nn4-c4cccc(CP(C)(C)=O)c4)c4ccccc34)ccn2)cc(OC)c1` [Example 15, 3-((4-((4-(3-(3-(tert-Butyl)-1-(3-((dimethylphosphoryl)methyl)phenyl)-1H-pyrazol-5-yl)-ureido)naphthalen-1-yl)oxy)pyridin-2-yl)amino)-5-methoxy-N-(2-(2-(2-methoxyethoxy)-ethoxy)ethyl)benzamide], the 50% inhibitory concentration (IC50) – broadly, the concentration that gives 50% inhibition – on p38 MAPKα stood at 34 nM; on c-Src it was 18 nM; against Syk, 57 nM; against GSK3α, 3200 nM; in the test on PBMCs [1], 1.2 nM; with HT29 cells, 2 nM. For the same molecule, the “% β-catenin induction” value is recorded as 4% in the test on β-catenin (1 μg/mL), 11% in the test on β-catenin (5 μg/mL) and 27% in the test on β-catenin (10 μg/mL).
Consider `C#Cc1cc(Nc2nccc(Oc3ccc(NC(=O)Nc4cc(C(C)(C)C)nn4-c4ccc(N(C)C)cc4)c4ccccc34)n2)cc(C(=O)NCCOCCOCCOC)c1` [Example 9, 3-((4-((4-(3-(3-(tert-Butyl)-1-(4-(dimethylamino)phenyl)-1H-pyrazol-5-yl)ureido)-naphthalen-1-yl)oxy)pyrimidin-2-yl)amino)-5-ethynyl-N-(2-(2-(2-methoxyethoxy)-ethoxy)ethyl)benzamide], for which the IC50 was found to be 98 nM against p38 MAPKα; 15 nM against c-Src; 35 nM against Syk; 12100 nM against GSK3α; 2.9 nM in the test on PBMCs [1]; 8.4 nM with PBMCs [2]. Also, the IC50 in the test on HT29 cells was 3.5 nM. Further, the “% β-catenin induction” value is on record as 1% with β-catenin (1 μg/mL), 2% in the test on β-catenin (5 μg/mL) and 4% in the test on β-catenin (10 μg/mL).
As for `C#Cc1cc(Nc2nccc(Oc3ccc(NC(=O)Nc4cc(C(C)(C)C)nn4-c4ccc(OC)cc4OC)c4ccccc34)n2)cc(C(=O)NCCOCCOCCOC)c1` [Example 13, 3-((4-((4-(3-(3-(tert-Butyl)-1-(2,4-dimethoxyphenyl)-1H-pyrazol-5-yl)ureido)naphthalen-1-yl)oxy)pyrimidin-2-yl)amino)-5-ethynyl-N-(2-(2-(2-methoxyethoxy)ethoxy)ethyl)-benzamide], the IC50 against p38 MAPKα worked out at 370 nM; on c-Src, 21 nM; on Syk, 123 nM; against GSK3α, 2130 nM; in the test with PBMCs [1], 4.6 nM; with HT29 cells, 3.6 nM. The “% β-catenin induction” value was −5% in the test on β-catenin (1 μg/mL), −2% in the test with β-catenin (5 μg/mL) and −4% in the test with β-catenin (10 μg/mL).
In the case of `C#Cc1cc(Nc2nccc(Oc3ccc(NC(=O)Nc4cc(C(C)C)nn4-c4ccc(C)cc4)c4ccccc34)n2)cc(C(=O)NCCOCCOCCOC)c1` [Example 1, 3-Ethynyl-5-((4-((4-(3-(3-isopropyl-1-(p-tolyl)-1H-pyrazol-5-yl)ureido)-naphthalen-1-yl)oxy)pyrimidin-2-yl)amino)-N-(2-(2-(2-methoxyethoxy)ethoxy)ethyl)-benzamide], the half-inhibitory concentration (IC50) against p38 MAPKα turned out to be 25 nM; on c-Src it was 30 nM; at Syk, 370 nM; against GSK3α it was 12800 nM; in the test on PBMCs [1] it was 1.6 nM. Also, in the test on PBMCs [3], the inhibition – broadly, the percentage by which the read-out fell short of the control – at 5 µg/mL worked out at 3.6%. Moreover, the results for the “% β-catenin induction” value in the test with β-catenin (1 μg/mL), with β-catenin (5 μg/mL) and with β-catenin (10 μg/mL) were −14%, −13% and −17%, respectively.
`COCCOCCOCCNC(=O)c1cc(Nc2cc(Oc3ccc(NC(=O)Nc4cc(C(C)(C)C)nn4-c4ccc(N(C)C)cc4)c4ccccc34)ccn2)cc(OC)c1` [Example 10, 3-((4-((4-(3-(3-(tert-Butyl)-1-(4-(dimethylamino)phenyl)-1H-pyrazol-5-yl)ureido)-naphthalen-1-yl)oxy)pyridin-2-yl)amino)-5-methoxy-N-(2-(2-(2-methoxyethoxy)-ethoxy)ethyl)benzamide]: the IC50 at p38 MAPKα was determined as 110 nM; at c-Src it was 25 nM; on Syk it was 48 nM; on GSK3α it was 12000 nM; with PBMCs [1] it was 3.3 nM; in the test on PBMCs [2] it was 2.7 nM. Also, the half-maximal inhibitory concentration (IC50) with HT29 cells turned out to be 4.8 nM. In addition, the “% β-catenin induction” value was 4% in the test with β-catenin (1 μg/mL), 2% with β-catenin (5 μg/mL) and 2% in the test with β-catenin (10 μg/mL).

Source of the values: patent US10301288B2, “Kinase inhibitors” (Topivert Pharma Limited, priority 2013, dated 2019).
